Like-named read-outs stand apart in the source and are kept apart here.
Columns and labels:
Assay type in all cases: cell-based
P. aeruginosa = test: MIC, broth microdilution, CDC/FDA Antibiotic Resistance Isolate Bank (Example 7, Tables 10, 15); details: Pseudomonas aeruginosa; for MIC: read-out: MIC
Klebsiella pneumoniae = test: MIC, broth microdilution, standard strains and Japanese clinical isolates (Example 5, Table 4)
Providencia rettgeri = test: as above; details: ATCCBAA2525; KUB4010 Providencia rettgeri ATCC BAA-2525, OXA-181

C[C@@H](O)[C@H]1C(=O)N2C(C(=O)O)=C(S[C@@H]3CN[C@H](C(=O)N(C)C)C3)[C@H](C)[C@H]12 [MEPM, meropenem]
8 µg/mL: MIC (P. aeruginosa; KUB No. 5754, AR Bank #358, no carbapenemase gene) | MIC (P. aeruginosa; KUB No. 5755, AR Bank #359, no carbapenemase gene) | MIC (P. aeruginosa; KUB No. 5786, AR Bank #440, no carbapenemase gene) | MIC (P. aeruginosa; KUB No. 5804, AR Bank #862, no carbapenemase gene) | MIC (P. aeruginosa; KUB No. 5831, AR Bank #526, no carbapenemase gene) | MIC (P. aeruginosa; KUB No. 5833, AR Bank #528, no carbapenemase gene) | MIC (P. aeruginosa; KUB No. 5834, AR Bank #529, no carbapenemase gene) | MIC (Klebsiella pneumoniae; ATCCBAA1899, KUB3997 Klebsiella pneumoniae ATCC BAA-1899, KPC-2) | MIC (Klebsiella pneumoniae; ATCCBAA1900, KUB3998 Klebsiella pneumoniae ATCC BAA-1900, KPC-3) | MIC (Klebsiella pneumoniae; ATCCBAA1905, KUB3155 Klebsiella pneumoniae ATCC BAA-1905, KPC-2) | MIC (Klebsiella pneumoniae; KUB3628 Klebsiella pneumoniae Clinical isolate, IMP-1)
16 µg/mL: MIC (P. aeruginosa; KUB No. 5756, AR Bank #360, no carbapenemase gene) | MIC (P. aeruginosa; KUB No. 5788, AR Bank #443, no carbapenemase gene) | MIC (P. aeruginosa; KUB No. 5793, AR Bank #449, no carbapenemase gene) | MIC (P. aeruginosa; KUB No. 5798, AR Bank #455, no carbapenemase gene) | MIC (P. aeruginosa; KUB No. 5802, AR Bank #459, no carbapenemase gene) | MIC (P. aeruginosa; KUB No. 5813, AR Bank #508, no carbapenemase gene) | MIC (P. aeruginosa; KUB No. 5817, AR Bank #512, no carbapenemase gene) | MIC (P. aeruginosa; KUB No. 5832, AR Bank #527, no carbapenemase gene) | MIC50 (P. aeruginosa; 96 strains of P. aeruginosa) | MIC (Klebsiella pneumoniae; ATCCBAA2343, KUB4004 Klebsiella pneumoniae ATCC BAA-2343, KPC-3) | MIC (Klebsiella pneumoniae; ATCCBAA2470, KUB3157 Klebsiella pneumoniae subsp. pneumoniae ATCC BAA-2470, NDM-1)
0.5 µg/mL: MIC (P. aeruginosa; KUB No. 5815, AR Bank #510, no carbapenemase gene) | MIC (Klebsiella pneumoniae; KUB3163 Klebsiella pneumoniae Clinical isolate, IMP-1) | MIC (Klebsiella pneumoniae; KUB3166 Klebsiella pneumoniae Clinical isolate, IMP-1) | MIC (Klebsiella pneumoniae; KUB3607 Klebsiella pneumoniae Clinical isolate, IMP-1) | MIC (Klebsiella pneumoniae; NCTC13439, KUB3159 Klebsiella pneumoniae NCTC13439, VIM-1) | MIC (Klebsiella pneumoniae; NCTC13440, KUB3160 Klebsiella pneumoniae NCTC13440, VIM-1)
0.25 µg/mL: MIC (Klebsiella pneumoniae; ATCCBAA2524, KUB3158 Klebsiella pneumoniae subsp. pneumoniae ATCC BAA-2524, OXA-48)
2 µg/mL: MIC (P. aeruginosa; KUB No. 5791, AR Bank #447, no carbapenemase gene) | MIC (Klebsiella pneumoniae; ATCCBAA1904, KUB3999 Klebsiella pneumoniae ATCC BAA-1904, KPC-3) | MIC (Klebsiella pneumoniae; KUB3164 Klebsiella pneumoniae Clinical isolate, IMP-6) | MIC (Providencia rettgeri)
32 µg/mL: MIC (P. aeruginosa; KUB No. 5787, AR Bank #441, KPC-2) | MIC (P. aeruginosa; KUB No. 5818, AR Bank #513, no carbapenemase gene) | MIC (P. aeruginosa; KUB No. 5820, AR Bank #515, no carbapenemase gene) | MIC (Klebsiella pneumoniae; ATCCBAA1898, KUB3996 Klebsiella pneumoniae ATCC BAA-1898, KPC-2) | MIC (Klebsiella pneumoniae; KUB3635 Klebsiella pneumoniae Clinical isolate, IMP-1)
4 µg/mL: MIC (Klebsiella pneumoniae; ATCCBAA1705, KUB3152 Klebsiella pneumoniae ATCC BAA-1705, KPC-2) | MIC (Klebsiella pneumoniae; ATCCBAA1903, KUB3154 Klebsiella pneumoniae ATCC BAA-1903, KPC-2) | MIC (Klebsiella pneumoniae; ATCCBAA2078, KUB4000 Klebsiella pneumoniae ATCC BAA-2078, KPC-3) | MIC (Klebsiella pneumoniae; ATCCBAA2342, KUB4003 Klebsiella pneumoniae ATCC BAA-2342, KPC-3) | MIC (Klebsiella pneumoniae; ATCCBAA2344, KUB3156 Klebsiella pneumoniae ATCC BAA-2344, KPC-2) | MIC (Klebsiella pneumoniae; KUB3631 Klebsiella pneumoniae Clinical isolate, IMP-1)
64 µg/mL: MIC (P. aeruginosa; KUB No. 5785, AR Bank #439, IMP-18) | MIC (P. aeruginosa; KUB No. 5799, AR Bank #456, no carbapenemase gene) | MIC (P. aeruginosa; KUB No. 5806, AR Bank #864, no carbapenemase gene) | MIC (P. aeruginosa; KUB No. 5821, AR Bank #516, KPC-2) | MIC80 (P. aeruginosa; 96 strains of P. aeruginosa) | MIC (Klebsiella pneumoniae; ATCCBAA1902, KUB3153 Klebsiella pneumoniae ATCC BAA-1902, KPC-3) | MIC (Klebsiella pneumoniae; ATCCBAA2146, KUB4011 Klebsiella pneumoniae ATCC BAA-2146, NDM-1) | MIC (Klebsiella pneumoniae; ATCCBAA2473, KUB4009 Klebsiella pneumoniae ATCC BAA-2473, NDM-1)
1 µg/mL: MIC (P. aeruginosa; KUB No. 5801, AR Bank #458, no carbapenemase gene) | MIC (Klebsiella pneumoniae; KUB3630 Klebsiella pneumoniae Clinical isolate, IMP-1) | MIC (Klebsiella pneumoniae; KUB3633 Klebsiella pneumoniae Clinical isolate, IMP-6) | MIC (Klebsiella pneumoniae; KUB3634 Klebsiella pneumoniae Clinical isolate, IMP-6)
256 µg/mL: MIC (Klebsiella pneumoniae; KUB3606 Klebsiella pneumoniae Clinical isolate, KPC-38)

Reference: patent EP4635500A1, “THERAPEUTIC AGENT FOR BACTERIAL INFECTION” (Sumitomo Pharma Co., Ltd., priority 2022, dated 2024)
